# Measurements from publication PMC5431371, “Crystal structure-based discovery of a novel synthesized PARP1 inhibitor (OL-1) with apoptosis-inducing mechanisms in triple-negative breast cancer” (Scientific Reports, 2016).
# Where “and” joins values, the source holds several entries; their conditions need not be identical. Equal values may be shown once. Read-outs that look alike come from different tables or passages of the source.
# How the values were obtained:
# [1] = system: MDA-MB-436 cells; experiment: Cell viability assay (MTT); type: cell-based; settings: Homo sapiens
# Method: 5 × 10^3 cells were seeded into each well in 96-well microplates and cultured for 24 h. […] After drug treatment, the cell viabilities were detected by MTT assay.
# [2] = system: MDA-MB-436 xenograft; experiment: MDA-MB-436 xenograft tumor model; type: in vivo, BALB/c nude mice
# Method: All experiments protocols used in this study were carried out in accordance with guidelines of the animal ethics committee (Sichuan University). Thirty-two 6–8 weeks-old female BALB/c nude mice (18–20 g) were subcutaneously injected with MDA-MB-436 cells (1 × 10^7 cells/mouse). Until the tumor volumes reached 100 mm^3 (calculated as V = L × W^2/2), the mice were randomly divided into four groups. […] Body weight and the tumor size were determined every day until the end of the study. All mice were sacrificed at the end of drug treatment. The organs of mice such as spleen, liver and kidney were harvested and weighed. Tumor tissues were detached and fixed in 4% paraformaldehyde for immunohistochemistry or lysed for western blotting.
# Immunohistochemical analysis was carried out by the method of our previous study. Samples were dehydrated using gradient ethanol, and subsequently paraffin embedded. The paraffin embedded samples were sliced into 5 μm thickness sections. […] Nuclei were counterstained with hematoxylin. The numbers of positive cells were counted in at least 6 fields for each section and statistical analyzed.
# [3] = target: T1, Recombinant Human PARP1 (Homo sapiens, UniProt P09874); experiment: PARP1 enzymatic inhibition assay (Universal Chemiluminescent PARP Assay Kit); type: biochemical; settings: mean ± SD, at least three independent experiments
# T1 construct: purchased Trevigen
# Method: The PARP1 enzymatic inhibition assay was performed by using Universal Chemiluminescent PARP Assay Kit (Trevigen, Gaithersburg, MD, USA) according to the manufacturer’s instruction and previous report. Briefly, serial dilutions of inhibitor were added to appropriate wells followed by addition of diluted PARP1 enzyme (0.5 Unit/well). After incubation for 10 min at room temperature, distributing 25 μL of 1X PARP Cocktail into each well and incubating the strip wells at room temperature for 60 min. The strip wells were washed with 1X PBS and 0.1% Triton X-100 for twice. Then 50 µL/well of diluted Strep-HRP was added to each well and incubate at room temperature for 60 min. After another wash with PBS, mixing equal volumes of PeroxyGlow™ A and B together and adding 100 µl per well. Finally, immediately taking the chemiluminescent readings. The IC50 values of PARP1 inhibitors were determined using Prism 6 software (GraphPad, San Diego, CA, USA).
# [4] = system: MDA-MB-436 cells; experiment: Apoptosis assay (Annexin V-FITC/PI double staining, flow cytometry); type: cell-based; settings: MDA-MB-436, 0.25-1 μM, 24 h
# Method: MDA-MB-436 cells (1 × 10^5 per well) were seeded into 6-well microplates in the presence or absence of OL-1 and cultured for 24 h, then incubated with 500 μL Hoechst 33258 staining solution (0.5 μg/mL) for 30 min at 37 °C. After staining, the apoptotic features were observed under fluorescence microscope. Apoptotic ratio was measured by Annexin-V-FLUOS Staining Kit (Roche, Germany) according to the manufacturer’s protocol followed by flow cytometry (FACS) analysis (Becton Dickinson, Franklin Lakes, NJ).
# [5] = system: MDA-MB-436 cells; experiment: Cell migration assay (scratch wound); type: cell-based; settings: 24 h
# Method: MDA-MB-436 cells were cultured in 24-well microplates and scratch-wounded by sterilized pipettes. Then the cells were washed with PBS and cultured with normal medium or OL-1. After 24 h incubation, pictures were taken by phase-contrast microscope.
# [6] = system: Bax, Bcl-2, Caspase-3; experiment: Western blot analysis of apoptotic markers; type: cell-based; settings: MDA-MB-436 cells
# Method: (§1) Western blot analysis was carried out briefly as previous description. MDA-MB-436 cells were exposed to OL-1 for indicated time. Both floating cells and adherent were collected. The cell pellets were resuspended with RIPA lysis buffer and PMSF (1 mM) (Beyotime, Haimen, Jiangsu, China) and lysed at 4 °C for 1 h. After 12,000 rpm centrifugation for 10 min, the supernatant was collected to determine the protein content by the BCA Protein Assay Kit (CWBIO, Beijing, China). […] After pre-blocking in TBST with 5% non-fat milk or BSA for 1 h, the membranes were incubated with primary antibodies overnight at 4 °C, and subsequently incubated with HRP-conjugated secondary antibody at room temperature for 1–2 h. Positive signals were detected by using ECL as the HRP substrate after washing with TBST solution.
# [7] = system: PARP1 and PAR; experiment: Western blot analysis of PARP1 and PAR in treated cells; type: cell-based; settings: MDA-MB-436 cells
# Method: as §1
# [8] = MDA-MB-436 cells (BRAC1 mutant breast cancer), mean ± SD, at least three independent experiments, read-out: Anti-cell viability (IC50, μM) MDA-MB-436
# [9] = recombinant human PARP1, read-out: Enzymatic inhibition (IC50, μM) PARP1
# [10] = high dose 25 mg/kg/d i.p., 14 days, vs Iniparib 100 mg/kg/d and low dose 12.5 mg/kg/d, P < 0.05
# T1 sequence (P09874 whole entry): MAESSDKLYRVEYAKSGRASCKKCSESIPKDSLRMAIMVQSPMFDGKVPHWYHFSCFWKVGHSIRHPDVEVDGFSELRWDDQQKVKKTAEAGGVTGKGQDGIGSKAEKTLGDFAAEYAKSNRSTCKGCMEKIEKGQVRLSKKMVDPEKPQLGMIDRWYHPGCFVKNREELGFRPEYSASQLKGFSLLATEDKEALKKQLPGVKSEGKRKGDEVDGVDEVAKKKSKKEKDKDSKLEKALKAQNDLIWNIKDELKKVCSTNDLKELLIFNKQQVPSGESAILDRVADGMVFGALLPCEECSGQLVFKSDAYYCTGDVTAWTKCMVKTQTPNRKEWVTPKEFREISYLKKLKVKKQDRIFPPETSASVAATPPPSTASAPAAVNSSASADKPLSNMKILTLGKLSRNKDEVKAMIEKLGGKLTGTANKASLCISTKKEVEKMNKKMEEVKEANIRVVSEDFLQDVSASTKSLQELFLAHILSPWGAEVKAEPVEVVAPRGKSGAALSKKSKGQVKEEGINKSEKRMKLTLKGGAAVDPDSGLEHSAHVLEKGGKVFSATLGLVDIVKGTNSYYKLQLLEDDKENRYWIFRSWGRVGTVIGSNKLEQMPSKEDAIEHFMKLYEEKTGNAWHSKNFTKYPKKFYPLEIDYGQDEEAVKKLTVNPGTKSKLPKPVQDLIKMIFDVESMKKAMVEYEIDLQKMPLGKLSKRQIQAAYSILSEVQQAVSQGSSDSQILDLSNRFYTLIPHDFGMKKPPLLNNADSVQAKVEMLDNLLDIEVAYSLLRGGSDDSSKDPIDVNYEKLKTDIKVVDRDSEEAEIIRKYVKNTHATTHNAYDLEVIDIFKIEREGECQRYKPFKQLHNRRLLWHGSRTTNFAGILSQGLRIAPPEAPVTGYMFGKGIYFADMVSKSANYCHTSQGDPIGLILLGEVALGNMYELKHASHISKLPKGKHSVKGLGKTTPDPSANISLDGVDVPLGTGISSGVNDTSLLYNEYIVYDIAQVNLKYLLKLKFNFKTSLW
Structure (SMILES),"IC50 [1, 8] [µM]","IC50 [3, 9]",also measured
"NC(=O)c1ccc(I)c([N+](=O)[O-])c1 [Iniparib, reference compound]",14.3 ± 1.56,–,"liver weights ([2]; 100 mg/kg/d, 14 days, P < 0.01): significantly decreased; spleen weights ([2]; 100 mg/kg/d, 14 days, P < 0.05): affected"
Fc1ccc(C=C2c3ccccc3CCc3ccccc32)cc1 [Compound 15b],–,> 20 µM,–
CN(C)CCC=C1c2ccccc2CSc2ccccc21 [Compound 23b],17.9 ± 2.11,1.04 ± 0.17 µM,–
CNCCC=C1c2ccccc2CCc2ccccc21 [Compound 11c],> 20,4.21 µM and 14.2 µM,–
CN(C)CCC=C1c2ccccc2COc2ccc(CC(=O)NC3CC3)cc21 [Compound 33n],–,> 20 µM,–
CNCC=C1c2ccccc2CCc2ccccc21 [Compound 11a],–,> 20 µM,–
CN(C)CCC=C1c2ccccc2COc2ccc(CC(=O)NCCO)cc21 [Compound 33k],> 20,19.1 ± 2.16 µM,–
CN(C)CC=C1c2ccccc2Oc2ccccc21 [Compound 28a],–,> 20 µM,–
CNCCCC=C1c2ccccc2CCc2ccccc21 [Compound 11e],–,> 20 µM,–
COCCCNC(=O)Cc1ccc2c(c1)C(=CCCN(C)C)c1ccccc1CO2 [Compound 33o],–,> 20 µM,–
CCOC(=O)Cc1ccc2c(c1)C(=CCCN(C)C)c1ccccc1CO2 [Compound 33b],–,> 20 µM,–
CN(C)CCC=C1c2ccccc2COc2ccccc21 [Compound 19b],–,0.75 ± 0.27 µM,–
CN(C)CCCC=C1c2ccccc2Cc2ccccc21 [Compound 26c],–,> 20 µM,–
CN(C)CC/C=C1/c2ccccc2COc2ccc(CC(=O)NN)cc21 [33e (OL-1)],0.736 ± 0.223,–,"IC50 ([1]; BRCA1 mutant MDA-MB-436 cells, MTT, Fig. 11A, read-out: anti-proliferative effects IC50): 5.14 µM; loss of body weight ([2]; 25 mg/kg/d i.p., during the 14 days of treatment, P < 0.01): 10.05%; liver, spleen and kidney weights ([2]; OL-1 treated groups (12.5 and 25 mg/kg/d i.p.)): not changed; tumor volumes [2, 10]: lower than the positive control; tumor weights [2, 10]: lower than the positive control; positive ratio of Ki-67 in tumor tissues ([2]; immunohistochemistry, compared to the control group): significantly reduced; decrease of body weights ([2]; low dose 12.5 mg/kg/d i.p., 14 days): not obvious; apoptotic cell ratio [4]: obviously increased in a concentration-dependent manner; cell migration [5]: could inhibit cell migration; Bax expression [6]: upregulated; Bcl-2 expression [6]: downregulated; cleavage of caspase-3 [6]: increased; expression of PAR (western blot) [7]: decreased; activity of PARP (western blot) ([7]; no cleavage of PARP): significantly inhibited; IC50 ([3]; Enzymatic inhibition (IC50, μM) PARP1, recombinant human PARP1): 0.079 ± 0.013 µM"
CN(C)CC=C1c2ccccc2CCc2ccccc21 [Compound 11b],> 20,16.2 ± 1.24 µM,–
CN(C)CC=C1c2ccccc2COc2ccccc21 [Compound 19a],> 20,13.2 ± 2.33 µM,–
CN(C)CCCC=C1c2ccccc2COc2ccccc21 [Compound 19c],–,> 20 µM,–

Structure (SMILES),"IC50 [1, 8] [µM]","IC50 [3, 9]",also measured
"CN(C)CCC=C1c2ccccc2CCc2ccccc21 [11d (PA-10), 3-(10,11-dihydro-5H-dibenzo[a,d][7]annulen-5-ylidene)-N,N-dimethylpropan-1-amine]",5.44 ± 1.01,1.65 ± 0.25 µM,–
Clc1ccc(C=C2c3ccccc3CCc3ccccc32)cc1 [Compound 15c],–,> 20 µM,–
CN(C)CCC=C1c2ccccc2Oc2ccccc21 [Compound 28b],–,> 20 µM,–
"O=C(c1cc(Cc2n[nH]c(=O)c3ccccc23)ccc1F)N1CCN(C(=O)C2CC2)CC1 [Olaparib, reference compound]",–,–,"IC50 ([1]; MDA-MB-436, read-out: Anti-cell viability (IC50, μM) MDA-MB-436): 1.12 ± 0.77 µM"
CN(C)CCCC=C1c2ccccc2CCc2ccccc21 [Compound 11f],–,> 20 µM,–
CN(C)CCCC=C1c2ccccc2Oc2ccccc21 [Compound 28c],–,> 20 µM,–
Cc1ccc(C=C2c3ccccc3CCc3ccccc32)cc1 [Compound 15e],–,> 20 µM,–
CN(C)CCC=C1c2ccccc2Cc2ccccc21 [Compound 26b],> 20,17.9 ± 2.46 µM,–
CN(C)CC/C=C1/c2ccccc2COc2ccc(CC(=O)O)cc21 [Compound 31],> 20,11.2 ± 1.16 µM,–
CN(C)CCCC=C1c2ccccc2CSc2ccccc21 [Compound 23c],–,> 20 µM,–
CN(C)CC=C1c2ccccc2Cc2ccccc21 [Compound 26a],–,> 20 µM,–
CN(C)CC=C1c2ccccc2CSc2ccccc21 [Compound 23a],> 20,19.2 ± 3.05 µM,–
COC(=O)Cc1ccc2c(c1)C(=CCCN(C)C)c1ccccc1CO2 [Compound 33a],> 20,9.11 µM and 19.1 µM,–
CC(C)NC(=O)Cc1ccc2c(c1)C(=CCCN(C)C)c1ccccc1CO2 [Compound 33j],8.23 ± 1.56,7.35 ± 1.32 µM,–
Brc1ccc(C=C2c3ccccc3CCc3ccccc32)cc1 [Compound 15d],–,> 20 µM,–
C(=C1c2ccccc2CCc2ccccc21)c1ccccc1 [Compound 15a],–,> 20 µM,–
